The record followed here is US9896456B2, “Pharmaceutical compound having inhibitory activity against cholesterol acyltransferase isozyme 2 (ACAT2)” (School Juridical Person Kitasato Institute, priority 2014, dated 2018).

This assay has as its target T1, ACAT2 (Mus musculus, UniProt O88908).
T1 construct: The resulting sediment was collected as a murine hepatic microsome fraction; from tissue; host or cells: mouse liver (hepatic microsome fraction)
T1 sequence (O88908 1-525): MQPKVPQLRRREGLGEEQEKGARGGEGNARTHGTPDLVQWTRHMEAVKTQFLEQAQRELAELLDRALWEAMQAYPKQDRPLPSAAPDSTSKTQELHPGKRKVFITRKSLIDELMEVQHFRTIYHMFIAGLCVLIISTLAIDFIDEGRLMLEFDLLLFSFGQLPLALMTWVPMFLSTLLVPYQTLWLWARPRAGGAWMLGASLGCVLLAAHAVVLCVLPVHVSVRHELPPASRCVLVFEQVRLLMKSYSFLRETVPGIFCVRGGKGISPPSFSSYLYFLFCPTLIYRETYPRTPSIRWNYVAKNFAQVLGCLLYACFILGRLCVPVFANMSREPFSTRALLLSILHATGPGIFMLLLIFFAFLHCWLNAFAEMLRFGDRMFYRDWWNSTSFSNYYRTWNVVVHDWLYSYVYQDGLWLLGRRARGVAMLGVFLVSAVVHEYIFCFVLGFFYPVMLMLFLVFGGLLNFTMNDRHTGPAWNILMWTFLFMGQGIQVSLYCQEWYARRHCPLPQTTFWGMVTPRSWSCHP
Put plainly: Test of inhibitory activity against ACAT2 (murine hepatic microsome, [1-14C]oleoyl coenzyme A). It counts as biochemical. Particulars: for IC50: murine hepatic microsome fraction as enzyme source, 37° C., 5 minutes; for degree of inhibitory activity against ACAT2 (in words, compared with pyripyropene A): summary of Table 1. The protocol:
The compounds produced in accordance with the procedure described above were tested concerning the inhibitory activity against ACAT2 in the manner described below.
The ACAT2 enzyme protein was extracted from the membrane fraction derived from the murine hepatic microsome. Mouse livers were homogenized in buffer A (50 mM Tris-HCl buffer (pH 7.8), 1 mM ethylenediaminetetraacetic acid, and 1 mM phenylmethanesulfonyl fluoride) using a Potter-type homogenizer (Tokyo-RIKO). The homogenate was centrifuged at 12,000×g, and the supernatant was subjected to ultracentrifugation at […]. The resulting sediment was collected as a murine hepatic microsome fraction, and this fraction was adjusted so as to have a protein concentration of 5 mg/ml using buffer A. Thus, an enzyme source of the ACAT2 enzyme protein was obtained.
ACAT2 activity was measured in the manner described below. […] The reaction solution was incubated at 37° C. for 5 minutes. A reaction solution prepared with the addition of 10 μl of methanol in place of the sample was used as a control reaction solution.
After the incubation, the reaction was terminated with the addition of 1.2 ml of a chloroform/methanol (1:2) solution to the reaction solution. […] The resulting chloroform layer was evaporated to dryness and spotted on a thin layer chromatography (TLC) plate (silica gel plate, 0.5 mm thickness, Merck). Separation was carried out with the use of a solvent comprising hexane/diethyl ether/acetic acid (70:30:1, v/v). Subsequently, [^14C] cholesteryl oleate separated on the TLC plate was quantified using FLA 7000 (Fuji Film). […] In quantification of the [^14C] cholesteryl oleate, the radioactivity of a TLC plate onto which no substance had been spotted was designated as the background level.
The symbols used in the table are as defined below.

For `CC(=O)O[C@H]1C[C@@H](C(C)C)C[C@H]2C(O)c3c(cc(-c4ccccc4)oc3=O)O[C@]12C` (stereo in doubt) [PT003, (5aS,6S,8S,9aS,10R)-10-hydroxy-8-isopropyl-5a-methyl-1-oxo-3-phenyl-1,5a,6,7,8,9,9a,10-octahydropyrano[4,3-b]chromen-6-yl acetate], the IC50 was 10 to 100 µM.

As to `CC(=O)O[C@H]1C[C@@H](C(C)C)C[C@H]2[C@@H](O)c3c(cc(-c4cccnc4)oc3=O)O[C@]12C` [PT001, (5aS,6S,8S,9aS,10R)-10-hydroxy-8-isopropyl-5a-methyl-1-oxo-3-(pyridin-3-yl)-1,5a,6,7,8,9,9a,10-octahydropyrano[4,3-b]chromen-6-yl acetate], the IC50 lay in the range of 10 to 100 µM.

As to `CC(=O)O[C@H]1C[C@@H](C(C)C)C[C@H]2[C@H](O)c3c(cc(-c4cccnc4)oc3=O)O[C@]12C` [PT002, (5aS,6S,8S,9aS,10S)-10-hydroxy-8-isopropyl-5a-methyl-1-oxo-3-(pyridin-3-yl)-1,5a,6,7,8,9,9a,10-octahydropyrano[4,3-b]chromen-6-yl acetate], the 50% inhibitory concentration (IC50) is 10 to 100 µM.

`CC(=O)O[C@H]1C[C@@H](C(C)C)C[C@H]2[C@H](O)c3c(cc(-c4ccccc4)oc3=O)O[C@]12C` [PT004, (5aS,6S,8S,9aS,10S)-0-hydroxy-8-isopropyl-5a-methyl-1-oxo-3-phenyl-1,5a,6,7,8,9,9a,10-octahydropyrano[4,3-b]chromen-6-yl acetate] came in with an IC50 of 0.5 to 10 µM.

Consider `CC(C)[C@@H]1C[C@H](OC(=O)c2ccc(C#N)cc2)[C@@]2(C)Oc3cc(-c4cccnc4)oc(=O)c3[C@H](O)[C@@H]2C1` [PT005, (5aS,6S,8S,9aS,10R)-10-hydroxy-8-isopropyl-5a-methyl-1-oxo-3-(pyridin-3-yl)-1,5a,6,7,8,9,9a,10-octahydropyrano[4,3-b]chromen-6-yl 4-cyanobenzoate], for which the IC50 is below 0.5 µM and the “degree of inhibitory activity against ACAT2 (in words, compared with pyripyropene A)” value is on record as “substantially equivalent to that of pyripyropene A”.

As for `CC(C)[C@@H]1C[C@H](OC(=O)c2ccc(C#N)cc2)[C@@]2(C)Oc3cc(-c4cccnc4)oc(=O)c3[C@@H](O)[C@@H]2C1` [PT006, (5aS,6S,8S,9aS,10S)-10-hydroxy-8-isopropyl-5a-methyl-1-oxo-3-(pyridin-3-yl)-1,5a,6,7,8,9,9a,10-octahydropyrano[4,3-b]chromen-6-yl 4-cyanobenzoate], the IC50 is below 0.5 µM and the “degree of inhibitory activity against ACAT2 (in words, compared with pyripyropene A)” value is recorded as “substantially equivalent to that of pyripyropene A”.

In the case of `CC(C)[C@@H]1C[C@H](OC(=O)c2ccc(C#N)cc2)[C@@]2(C)Oc3cc(-c4ccccc4)oc(=O)c3[C@H](O)[C@@H]2C1` [PT007, (5aS,6S,8S,9aS,10R)-10-hydroxy-8-isopropyl-5a-methyl-1-oxo-3-phenyl-1,5a,6,7,8,9,9a,10-octahydropyrano[4,3-b]chromen-6-yl 4-cyanobenzoate], the IC50 lay within 0.5 to 10 µM.

The compound `CC(=O)O[C@H]1C[C@@H](C(C)C)C(C)(C)[C@H]2[C@@H](O)c3c(cc(-c4cccnc4)oc3=O)O[C@]12C` [PT008, (5aS,6S,8S,9aS,10R)-10-hydroxy-8-isopropyl-5a,9,9-trimethyl-1-oxo-3-(pyridin-3-yl)-1,5a,6,7,8,9,9a,10-octahydropyrano[4,3-b]chromen-6-yl acetate] yielded an IC50 of 0.5 to 10 µM.

For `CC(C)[C@@H]1C[C@H](OC(=O)c2ccc(C#N)cc2)[C@@]2(C)Oc3cc(-c4cccnc4)oc(=O)c3[C@H](O)[C@@H]2C1(C)C` [PT009, (5aS,6S,8S,9aS,10R)-10-hydroxy-8-isopropyl-5a,9,9-trimethyl-1-oxo-3-(pyridin-3-yl)-1,5a,6,7,8,9,9a,10-octahydropyrano[4,3-b]chromen-6-yl 4-cyanobenzoate], the IC50 was below 0.5 µM and the “degree of inhibitory activity against ACAT2 (in words, compared with pyripyropene A)” value is on record as “substantially equivalent to that of pyripyropene A”.

`CC(=O)OCC(COC(C)=O)[C@@H]1C[C@H](OC(C)=O)[C@@]2(C)Oc3cc(-c4cccnc4)oc(=O)c3[C@H](O)[C@@H]2C1(C)C` [PT010] showed an IC50 of 10 to 100 µM.

Compound `CC(=O)OCC(COC(C)=O)[C@@H]1C[C@H](OC(=O)c2ccc(C#N)cc2)[C@@]2(C)Oc3cc(-c4cccnc4)oc(=O)c3[C@H](O)[C@@H]2C1(C)C` [PT022, 2-((5aS,6S,8S,9aS,10R)-6-((4-cyanobenzoyl)oxy)-10-hydroxy-5a,9,9-trimethyl-1-oxo-3-(pyridin-3-yl)-1,5a,6,7,8,9,9a,10-octahydropyrano[4,3-b]chromen-8-yl)propane-1,3-diyl diacetate] came in with an IC50 below 0.5 µM.

Usually IC50 stands for the concentration at which inhibition is half-maximal.
